Results: ChEMBL document CHEMBL1152842, “Synthesis, Raman, FT-IR, NMR spectroscopic data and antimicrobial activity of mixed aza-oxo-thia macrocyclic compounds” (2009)
In brackets after ≈: the same amount, converted by molar mass.

Experiments:
Assay type in all cases: functional
Micrococcus luteus [1] = experiment: Antibacterial activity against Micrococcus luteus La 2971 after 24 hrs by disk diffusion method
Listeria monocytogenes [2] = experiment: Antibacterial activity against Listeria monocytogenes ATCC 15313 after 24 hrs by twofold serial dilution method; details: ATCC 15313, 24 h
Micrococcus luteus [3] = experiment: Antibacterial activity against Micrococcus luteus La 2971 after 24 hrs by twofold serial dilution method
Listeria monocytogenes [4] = experiment: Antibacterial activity against Listeria monocytogenes ATCC 15313 after 24 hrs by disk diffusion method
Pseudomonas aeruginosa [5] = experiment: Antibacterial activity against Pseudomonas aeruginosa ATCC 27853 after 24 hrs by twofold serial dilution method; details: ATCC 27853, 24 h
Rhodotorula mucilaginosa [6] = experiment: Antifungal activity against Rhodotorula rubra DSM 70403 after 72 hrs by disk diffusion method
Pseudomonas aeruginosa [7] = experiment: Antibacterial activity against Pseudomonas aeruginosa ATCC 27853 after 24 hrs by disk diffusion method
[8] = test system: Hanseniaspora guilliermondii; experiment: Antifungal activity against Hanseniaspora guilliermondii DSM 3432 after 72 hrs by disk diffusion method
Klebsiella pneumoniae [9] = experiment: Antibacterial activity against Klebsiella pneumoniae UC57 after 24 hrs by disk diffusion method
[10] = test system: Mycolicibacterium smegmatis; experiment: Antibacterial activity against Mycobacterium smegmatis CCM 2067 after 24 hrs by twofold serial dilution method; details: CCM 2067, 24 h
Debaryomyces hansenii [11] = experiment: Antifungal activity against Debaryomyces hansenii DSM 70238 after 72 hrs by disk diffusion method
Debaryomyces hansenii [12] = experiment: Antifungal activity against Debaryomyces hansenii DSM 70238 after 48 hrs by twofold serial dilution method; details: DSM 70238, 48 h
Proteus vulgaris [13] = experiment: Antibacterial activity against Proteus vulgaris ATCC 8427 after 24 hrs by twofold serial dilution method; details: ATCC 8427, 24 h
Escherichia coli [14] = experiment: Antibacterial activity against Escherichia coli ATCC 11230 after 24 hrs by twofold serial dilution method; details: ATCC 11230, 24 h
Bacillus cereus [15] = experiment: Antibacterial activity against Bacillus cereus ATCC 7064 after 24 hrs by twofold serial dilution method; details: ATCC 7064, 24 h
Staphylococcus aureus [16] = experiment: Antibacterial activity against Staphylococcus aureus ATCC 6538 after 24 hrs by twofold serial dilution method; details: ATCC 6538, 24 h
[17] = test system: Mycolicibacterium smegmatis; experiment: Antibacterial activity against Mycobacterium smegmatis CCM 2067 after 24 hrs by disk diffusion method
Staphylococcus aureus [18] = experiment: Antibacterial activity against Staphylococcus aureus ATCC 6538 after 24 hrs by disk diffusion method
Escherichia coli [19] = experiment: Antibacterial activity against Escherichia coli ATCC 11230 after 24 hrs by disk diffusion method
Kluyveromyces marxianus [20] = experiment: Antifungal activity against Kluyveromyces fragilis NRRL 2415 after 48 hrs by twofold serial dilution method; details: NRRL 2415, 48 h
Proteus vulgaris [21] = experiment: Antibacterial activity against Proteus vulgaris ATCC 8427 after 24 hrs by disk diffusion method
Klebsiella pneumoniae [22] = experiment: Antibacterial activity against Klebsiella pneumoniae UC57 after 24 hrs by twofold serial dilution method
Candida albicans [23] = experiment: Antifungal activity against Candida albicans ATCC 10231 after 48 hrs by twofold serial dilution method; details: ATCC 10231, 48 h
Candida albicans [24] = experiment: Antifungal activity against Candida albicans ATCC 10231 after 72 hrs by disk diffusion method
Kluyveromyces marxianus [25] = experiment: Antifungal activity against Kluyveromyces fragilis NRRL 2415 after 72 hrs by disk diffusion method
[26] = test system: Hanseniaspora guilliermondii; experiment: Antifungal activity against Hanseniaspora guilliermondii DSM 3432 after 48 hrs by twofold serial dilution method; details: DSM 3432, 48 h
Rhodotorula mucilaginosa [27] = experiment: Antifungal activity against Rhodotorula rubra DSM 70403 after 48 hrs by twofold serial dilution method; details: DSM 70403, 48 h
Bacillus cereus [28] = experiment: Antibacterial activity against Bacillus cereus ATCC 7064 after 24 hrs by disk diffusion method
Staphylococcus aureus [29] = experiment: Antibacterial activity against Staphylococcus aureus ATCC 6538 at 1 ug after 24 hrs by disk diffusion method; details: ATCC 6538, 24 h, read-out: IZ
Bacillus cereus [30] = experiment: Antibacterial activity against Bacillus cereus ATCC 7064 at 1 ug after 24 hrs by disk diffusion method; details: ATCC 7064, 24 h, read-out: IZ
Klebsiella pneumoniae [31] = experiment: Antibacterial activity against Klebsiella pneumoniae UC57 at 1 ug after 24 hrs by disk diffusion method; details: read-out: IZ
Pseudomonas aeruginosa [32] = experiment: Antibacterial activity against Pseudomonas aeruginosa ATCC 27853 at 1 ug after 24 hrs by disk diffusion method; details: ATCC 27853, 24 h, read-out: IZ
Micrococcus luteus [33] = experiment: Antibacterial activity against Micrococcus luteus La 2971 at 1 ug after 24 hrs by disk diffusion method; details: read-out: IZ
Escherichia coli [34] = experiment: Antibacterial activity against Escherichia coli ATCC 11230 at 1 ug after 24 hrs by disk diffusion method; details: ATCC 11230, 24 h, read-out: IZ
Proteus vulgaris [35] = experiment: Antibacterial activity against Proteus vulgaris ATCC 8427 at 1 ug after 24 hrs by disk diffusion method; details: ATCC 8427, 24 h, read-out: IZ
[36] = test system: Mycolicibacterium smegmatis; experiment: Antibacterial activity against Mycobacterium smegmatis CCM 2067 at 1 ug after 24 hrs by disk diffusion method; details: CCM 2067, 24 h, read-out: IZ
Listeria monocytogenes [37] = experiment: Antibacterial activity against Listeria monocytogenes ATCC 15313 at 1 ug after 24 hrs by disk diffusion method; details: ATCC 15313, 24 h, read-out: IZ
[38] = test system: Mycolicibacterium smegmatis; experiment: Antibacterial activity against Mycobacterium smegmatis CCM 2067 at 5 ug after 24 hrs by disk diffusion method; details: CCM 2067, 24 h, read-out: IZ
Klebsiella pneumoniae [39] = experiment: Antibacterial activity against Klebsiella pneumoniae UC57 at 5 ug after 24 hrs by disk diffusion method; details: read-out: IZ
Micrococcus luteus [40] = experiment: Antibacterial activity against Micrococcus luteus La 2971 at 5 ug after 24 hrs by disk diffusion method; details: read-out: IZ
Proteus vulgaris [41] = experiment: Antibacterial activity against Proteus vulgaris ATCC 8427 at 5 ug after 24 hrs by disk diffusion method; details: ATCC 8427, 24 h, read-out: IZ
Staphylococcus aureus [42] = experiment: Antibacterial activity against Staphylococcus aureus ATCC 6538 at 5 ug after 24 hrs by disk diffusion method; details: ATCC 6538, 24 h, read-out: IZ
Bacillus cereus [43] = experiment: Antibacterial activity against Bacillus cereus ATCC 7064 at 5 ug after 24 hrs by disk diffusion method; details: ATCC 7064, 24 h, read-out: IZ
Escherichia coli [44] = experiment: Antibacterial activity against Escherichia coli ATCC 11230 at 5 ug after 24 hrs by disk diffusion method; details: ATCC 11230, 24 h, read-out: IZ
Pseudomonas aeruginosa [45] = experiment: Antibacterial activity against Pseudomonas aeruginosa ATCC 27853 at 5 ug after 24 hrs by disk diffusion method; details: ATCC 27853, 24 h, read-out: IZ
Listeria monocytogenes [46] = experiment: Antibacterial activity against Listeria monocytogenes ATCC 15313 at 5 ug after 24 hrs by disk diffusion method; details: ATCC 15313, 24 h, read-out: IZ

SMILES: O=C1CSCC(=O)Nc2cccc(n2)NC(=O)CSCC(=O)Nc2cccc(n2)N1
- inhibition zone (IZ) (Micrococcus luteus [1]): 12 mm
- MIC (Listeria monocytogenes [2]): 12.5 µg/mL (≈ 28 µM)
- MIC (Micrococcus luteus [3]): 12.5 µg/mL (≈ 28 µM)
- inhibition zone (IZ) (Listeria monocytogenes [4]): 12 mm
- MIC (Pseudomonas aeruginosa [5]): 6.25 µg/mL (≈ 14 µM)
- inhibition zone (IZ) (Rhodotorula mucilaginosa [6]): 15 mm
- inhibition zone (IZ) (Pseudomonas aeruginosa [7]): 16 mm
- inhibition zone (IZ) [8]: 20 mm
- inhibition zone (IZ) (Klebsiella pneumoniae [9]): 15 mm
- MIC [10]: 25 µg/mL (≈ 56 µM)
- inhibition zone (IZ) (Debaryomyces hansenii [11]): 18 mm
- MIC (Debaryomyces hansenii [12]): 3.12 µg/mL (≈ 7 µM)
- MIC (Proteus vulgaris [13]): 25 µg/mL (≈ 56 µM)
- MIC (Escherichia coli [14]): 25 µg/mL (≈ 56 µM)
- MIC (Bacillus cereus [15]): 12.5 µg/mL (≈ 28 µM)
- MIC (Staphylococcus aureus [16]): 12.5 µg/mL (≈ 28 µM)
- inhibition zone (IZ) [17]: 10 mm
- inhibition zone (IZ) (Staphylococcus aureus [18]): 14 mm
- inhibition zone (IZ) (Escherichia coli [19]): 10 mm
- MIC (Kluyveromyces marxianus [20]): 3.12 µg/mL (≈ 7 µM)
- inhibition zone (IZ) (Proteus vulgaris [21]): 11 mm
- MIC (Klebsiella pneumoniae [22]): 6.25 µg/mL (≈ 14 µM)
- MIC (Candida albicans [23]): 6.25 µg/mL (≈ 14 µM)
- inhibition zone (IZ) (Candida albicans [24]): 17 mm
- inhibition zone (IZ) (Kluyveromyces marxianus [25]): 20 mm
- MIC [26]: 3.12 µg/mL (≈ 7 µM)
- MIC (Rhodotorula mucilaginosa [27]): 6.25 µg/mL (≈ 14 µM)
- inhibition zone (IZ) (Bacillus cereus [28]): 12 mm

SMILES: O=C1CCSSCCC(=O)Nc2cccc(n2)NC(=O)CCSSCCC(=O)Nc2cccc(n2)N1
- inhibition zone (IZ) (Micrococcus luteus [1]): 15 mm
- MIC (Listeria monocytogenes [2]): 12.5 µg/mL (≈ 22.1 µM)
- MIC (Micrococcus luteus [3]): 12.5 µg/mL (≈ 22.1 µM)
- inhibition zone (IZ) (Listeria monocytogenes [4]): 15 mm
- MIC (Pseudomonas aeruginosa [5]): 6.25 µg/mL (≈ 11 µM)
- inhibition zone (IZ) (Rhodotorula mucilaginosa [6]): 22 mm
- inhibition zone (IZ) (Pseudomonas aeruginosa [7]): 17 mm
- inhibition zone (IZ) [8]: 22 mm
- inhibition zone (IZ) (Klebsiella pneumoniae [9]): 17 mm
- MIC [10]: 25 µg/mL (≈ 44.1 µM)
- inhibition zone (IZ) (Debaryomyces hansenii [11]): 22 mm
- MIC (Debaryomyces hansenii [12]): 1.56 µg/mL (≈ 2.75 µM)
- MIC (Proteus vulgaris [13]): 25 µg/mL (≈ 44.1 µM)
- MIC (Escherichia coli [14]): 6.25 µg/mL (≈ 11 µM)
- MIC (Bacillus cereus [15]): 12.5 µg/mL (≈ 22.1 µM)
- MIC (Staphylococcus aureus [16]): 6.25 µg/mL (≈ 11 µM)
- inhibition zone (IZ) [17]: 10 mm
- inhibition zone (IZ) (Staphylococcus aureus [18]): 15 mm
- inhibition zone (IZ) (Escherichia coli [19]): 16 mm
- MIC (Kluyveromyces marxianus [20]): 1.56 µg/mL (≈ 2.75 µM)
- inhibition zone (IZ) (Proteus vulgaris [21]): 11 mm
- MIC (Klebsiella pneumoniae [22]): 6.25 µg/mL (≈ 11 µM)
- MIC (Candida albicans [23]): 1.56 µg/mL (≈ 2.75 µM)
- inhibition zone (IZ) (Candida albicans [24]): 22 mm
- inhibition zone (IZ) (Kluyveromyces marxianus [25]): 22 mm
- MIC [26]: 1.56 µg/mL (≈ 2.75 µM)
- MIC (Rhodotorula mucilaginosa [27]): 1.56 µg/mL (≈ 2.75 µM)
- inhibition zone (IZ) (Bacillus cereus [28]): 15 mm

SMILES: CC1(C)S[C@@H]2[C@H](NC(=O)[C@H](N)c3ccccc3)C(=O)N2[C@H]1C(=O)O [AMPICILLIN]
- zone of inhibition at 1 µg/disc (Staphylococcus aureus [29]): 16 mm
- zone of inhibition at 1 µg/disc (Bacillus cereus [30]): 16 mm
- zone of inhibition at 1 µg/disc (Klebsiella pneumoniae [31]): 14 mm
- zone of inhibition at 1 µg/disc (Pseudomonas aeruginosa [32]): 12 mm
- zone of inhibition at 1 µg/disc (Micrococcus luteus [33]): 10 mm
- zone of inhibition at 1 µg/disc (Escherichia coli [34]): 12 mm
- zone of inhibition at 1 µg/disc (Proteus vulgaris [35]): 32 mm
- zone of inhibition at 1 µg/disc [36]: 21 mm
- zone of inhibition at 1 µg/disc (Listeria monocytogenes [37]): 12 mm

SMILES: CO/N=C(\C(=O)N[C@@H]1C(=O)N2C(C(=O)O)=C(COC(C)=O)CS[C@H]12)c1csc(N)n1 [CEFOTAXIME]
- zone of inhibition at 1 µg/disc (Staphylococcus aureus [29]): 12 mm
- zone of inhibition at 1 µg/disc (Bacillus cereus [30]): 18 mm
- zone of inhibition at 1 µg/disc (Klebsiella pneumoniae [31]): 13 mm
- zone of inhibition at 1 µg/disc (Pseudomonas aeruginosa [32]): 14 mm
- zone of inhibition at 1 µg/disc (Micrococcus luteus [33]): 54 mm
- zone of inhibition at 1 µg/disc (Escherichia coli [34]): 10 mm
- zone of inhibition at 1 µg/disc (Proteus vulgaris [35]): 32 mm
- zone of inhibition at 1 µg/disc [36]: 11 mm
- zone of inhibition at 1 µg/disc (Listeria monocytogenes [37]): 16 mm

SMILES: CC1COc2c(N3CCN(C)CC3)c(F)cc3c(=O)c(C(=O)O)cn1c23 (stereo not drawn) [OFLOXACIN]
- zone of inhibition at 5 µg/disc [38]: 32 mm
- zone of inhibition at 5 µg/disc (Klebsiella pneumoniae [39]): 28 mm
- zone of inhibition at 5 µg/disc (Micrococcus luteus [40]): 44 mm
- zone of inhibition at 5 µg/disc (Proteus vulgaris [41]): 28 mm
- zone of inhibition at 5 µg/disc (Staphylococcus aureus [42]): 24 mm
- zone of inhibition at 5 µg/disc (Bacillus cereus [43]): 28 mm
- zone of inhibition at 5 µg/disc (Escherichia coli [44]): 30 mm
- zone of inhibition at 5 µg/disc (Pseudomonas aeruginosa [45]): 30 mm
- zone of inhibition at 5 µg/disc (Listeria monocytogenes [46]): 30 mm
